# Assay results from publication PMC11267533, “Ligandability at the Membrane Interface of GPx4 Revealed through a Reverse Micelle Fragment Screening Platform” (JACS Au, 2024).
# Values joined by “and” are separate entries in the source; they are usually repeats but may differ in a detail not shown here. Equal values may be shown once. Read-outs that look alike come from different tables or passages of the source.
# Legend:
# [1] = biological target: T1, GPx4 embedded in a mmRM (membrane-bound GPx4) (Homo sapiens, UniProt P36969, U73G); assay: NMR (15N-HSQC) titration of fragments against GPx4 embedded in DLPC/DPC mmRM, apparent Kd; format: binding; settings: ± standard error of global Kd fit
# T1 construct: Truncated U46G-GPx4 with a TEV cleavable poly-histidine tag was inserted into vector; poly-histidine tag with TEV cleavage site; host or cells: BL21 (DE3) E. coli
# T1 sequence (P36969 1-170 isoform P36969-2 U46G): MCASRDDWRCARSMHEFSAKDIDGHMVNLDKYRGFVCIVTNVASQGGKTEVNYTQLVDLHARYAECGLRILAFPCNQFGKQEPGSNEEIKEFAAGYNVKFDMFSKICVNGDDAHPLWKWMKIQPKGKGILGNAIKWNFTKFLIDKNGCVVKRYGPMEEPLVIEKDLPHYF
# Excerpt: To assess whether the fragment hits are bound specifically to GPx4 and to calculate affinity, we performed NMR-based titrations. Chemical shift changes that approach saturation in a structurally localized manner target indicate specific binding.[24] This allows true positive hits to be separated from false positives and weak or nonspecific binders. Additionally, NMR-based titrations allow for the extraction of a binding affinity (Kd). To calculate apparent Kd values, CSP cutoffs were used to isolate the resonances with most shifting using 1 standard deviation above the average CSP. All 14 fragments identified from the deconvolutions were titrated up to 400 μM or 1 mM if needed. Of the 14, 9 had apparent Kds less than 1 mM and were identified as hits. Observed here is a 0.47% hit rate with best affinities in the μM range for the membrane-bound form of GPx4 and is consistent with ligandable and potentially druggable targets.[14],[57] […] The remaining five fragments, 10–14, were ruled out as weaker (>∼1 mM) or nonspecific binders. Weak or nonspecific binding could indicate that fragments partitioning to the mmRM surface and perturb the protein spectrum through a simple change in the chemical environment at the interface, among other possible nonspecific effects. […] We note that the weaker and nonspecific fragments were only eliminated due to interaction modes that are too weak or unproductive for advancement toward inhibitors; yet, binding was nevertheless detected. […] We note here that apparent Kd values reported in this study account for a total amount of fragment and protein within the mmRM sample and are not corrected for any potential concentrating effect due to localization of fragment to the mmRM surface or water phase.
# NMR samples were prepared with ^15N-isotopically labeled protein with 10% v/v of d-pentane as the lock solvent (Sigma-Aldrich, St. Louis, MO). All NMR spectra were collected at 25 °C on a 700 MHz Bruker Avance III instrument. All NMR spectra were processed using NMRPipe[66] and analyzed using NMRFAM-Sparky.[67] Chemical shifts for GPx4 (BMRB 50955) were assigned from those previously published.[52] Chemical shift perturbations from ^15N-HSQC spectra were calculated using the following formula [drawing 1] where Δ^1H and Δ^15N are the changes in ^1H and ^15N chemical shifts, respectively.
# The 14 fragments isolated from deconvolutions were purchased from Life Chemicals (fragments 1, 4, 6, and 11, and 12–14), Combi-Blocks (2, 3, 5, 9, and 10), or ChemBridge Hit2Lead (7 and 8). All fragment 1 and 5 analogues were also purchased from ChemBridge Hit2Lead. Fragments and analogues purchased from Life Chemicals and Hit2Lead are 90+% pure, while the fragments purchased from Combi-Blocks ranged from 95 to 97% pure. The day prior to the titration, a double-volume sample of encapsulated GPx4 was made before being split up into two separate vials. Half of the sample was added to the vial containing predried fragment corresponding to 400 μM or 1 mM. […] If they were, then the two samples were mixed to produce varying concentrations and to measure a titration curve. The top-shifting resonances were determined by calculating the average CSP at 400 μM or 1 mM and 1 and 2 standard deviations (σ) above that average. The CSP for the resonance at each fragment concentration was extracted and fit to a curve using an affinity equation that accounts for ligand depletion [drawing 2]
# Any resonance producing a curve with an R^2 below 0.85 was removed, and the remaining resonances were then used to fit a global apparent Kd curve for the fragment hit. Standard error for Kd from the global fit of all of the selected residues is reported.
# [2] = Fragment partitioning in DHPC/DMPC bicelles by 2D 1H-1H NOESY; format: physicochemical; settings: 5 mM fragment, 100% D2O
# Excerpt: To confirm partitioning behavior, we tested fragments in DHPC/DMPC bicelles, which use a bulk aqueous solvent, and the hydrophobic phase is confined to the bicelle interior. To successfully collect NOESY data, the sample solvent was composed of 100% D2O. […] Together, the results highlight the partitioning behavior of fragments that bind to GPx4. Hydrophilic, hydrophobic, or fragments that partition to the surfactant shell are all capable of binding to the membrane-bound state of GPx4 and may be detected using this method.
# Partitioning coefficients for fragment hits and analogues were calculated using a Marvin Log D calculator (Chemaxon) and were used to prioritize fragments for 2D NOESYs. mmRMs were premade as previously described and loaded with 5 mM dried fragment 1, 5, or 6 before shaking overnight. A high concentration of fragments is needed for these experiments to observe the intermolecular NOEs between the fragments and the membrane model components. For the DHPC/DMPC samples, the q = 1.0 bicelles were constructed routinely,[55] as described in the Supporting Information, with an additional step to ensure the complete removal of water before experimentation. An aliquot of buffer (100 mM Bis-Tris pH 6.0, 100 mM NaCl, and 10 mM DTT) was frozen and freeze-dried overnight to remove residual water. The dried buffer was then resuspended in 100% D2O, mixed, and frozen before another round of freeze-drying. The components were then resuspended in 100% D2O again before being incorporated into the DHPC fraction of the bicelle. The DHPC solution was then mixed with dried DMPC, and bicelle formation proceeded. The NOESY experimental design was based on a previous work.[60] All NMR spectra were collected at 25 °C on a 700 MHz Bruker Avance III instrument. The 2D data was collected with a 90° pulse width between 10.2 and 11.0 μs, which was optimized prior to each experiment. 128 complex increments were collected in the State-TPPI mode with 8 scans per increment, 2 s recycle time, and 250 ms mixing time. […]
# [3] = Table 2, analogues of fragment 5, GPx4 in mmRM, read-out: Apparent Kd
# [4] = Table 1, GPx4 in DLPC/DPC mmRM, NMR titration up to 400 μM or 1 mM, read-out: Kd (apparent)
Compound,"Kd [1, 3]","Kd [1, 4]",Partitioning in bicelles (intermolecular NOEs) [2]
O=c1oc2c(-c3ccc(Cl)c(Cl)c3)cc(O)cc2s1 [Analog 5.5],~30 µM and 30 µM,,
"O=c1cc(Nc2ccccc2)cc[nH]1 [Fragment 1, 4-(phenylamino)-1,2-dihydropyridin-2-one]",,105 ± 30 µM,partitions to the bicelle
"O=c1oc2ccc(O)cc2s1 [Fragment 5, 5-hydroxy-1,3-benzoxathiol-2-one]",220 ± 90 µM,220 ± 90 µM,full partitioning into the hydrophobic core of the bicelles
"COCCNCc1ccncc1.Cl [Fragment 6, (2-methoxyethyl)(4-pyridinylmethyl)amine hydrochloride]",,230 ± 60 µM,no NOE cross-peaks to bicelle surfactants were observed
